The source of these data is patent US11596639B2, “Substituted indole Mcl-1 inhibitors” (Vanderbilt University, priority 2016, dated 2023).

The test system of experiment [1] is H929 human cancer cell lines. In words: Cellular viability / proliferation (Cell TiterGlo, 72 h). Format: cell-based. The conditions noted are these: Homo sapiens, NCI-H929, 72 h, read-out: GI50 on cellular proliferation of H929 human cancer cell lines, H929 cells, 72 h, Cell TiterGlo, 10% FBS. The method in brief: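 Cells were seeded at 1,000 cells/well in medium with 10% FBS and dosed 24 h later with a 2-fold serial dilution of compound (top concentration 50 μM, final DMSO <1%).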

A further experiment has as its target Mcl-1 (Homo sapiens (Human), UniProt Q07820). In words: Fluorescence polarization anisotropy (FPA) competition assay, FITC-Bak or FITC-Bim BH3 peptide. Format: binding. The conditions noted are these: read-out: Ki for Inhibition of Mcl-1 by FPA assay.

Chain of Mcl-1 (Q07820 172-327): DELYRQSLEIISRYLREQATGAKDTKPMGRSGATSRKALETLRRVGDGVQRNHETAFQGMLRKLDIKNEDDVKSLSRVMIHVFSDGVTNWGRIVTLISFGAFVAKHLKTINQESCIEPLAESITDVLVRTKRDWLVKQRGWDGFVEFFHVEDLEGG

Take `CCn1ncc2cc(C(=O)O)cc(N3CCCn4c(c(CCCOc5cc(C)c(Cl)c(C)c5)c5ccc(Cl)c(-c6c(C)nn(C)c6C)c54)C3=O)c21` [Example 122, 7-(8-Chloro-11-(3-(4-chloro-3,5-dimethylphenoxy)propyl)-1-oxo-7-(1,3,5-trimethyl-1H-pyrazol-4-yl)-4,5-dihydro-1H-[1,4]diazepino[1,2-a]indol-2(3H)-yl)-1-ethyl-1H-indazole-5-carboxylic acid]: the GI50 in experiment [1] stood at 11000 nM. In addition, at Mcl-1, the Ki worked out at 2.2 nM.

On to `COc1cnc(-c2ccc3c(c2)c(N2C[C@@H](C)n4c(c(CCCOc5cc(C)c(Cl)c(C)c5)c5ccc(Cl)c(-c6c(C)nn(C)c6C)c54)C2=O)cn3C)nc1` [Example 465, (R)-7-Chloro-10-(3-(4-chloro-3,5-dimethylphenoxy)propyl)-2-(5-(5-methoxypyrimidin-2-yl)-1-methyl-1H-indol-3-yl)-4-methyl-6-(1,3,5-trimethyl-1H-pyrazol-4-yl)-3,4-dihydropyrazino[1,2-a]indol-1(2H)-one], for which the GI50 in experiment [1] came to 690 nM. Also, the Ki on Mcl-1 worked out at 1.5 nM.

With `Cc1cc(OCCCc2c3n(c4c(-c5c(C)nn(C)c5C)c(Cl)ccc24)[C@H](C)CN(c2cn4cccc(C(=O)O)c4n2)C3=O)cc(C)c1Cl` [Example 112, (R)-2-(7-chloro-10-(3-(4-chloro-3,5-dimethylphenoxy)propyl)-4-methyl-1-oxo-6-(1,3,5-trimethyl-1H-pyrazol-4-yl)-3,4-dihydropyrazino[1,2-a]indol-2(1H)-yl)imidazo[1,2-a]pyridine-8-carboxylic acid], the GI50 in experiment [1] turned out to be 5300 nM. In addition, the Ki at Mcl-1 was 3.3 nM.

As to `Cc1ccc(Cn2c(C(=O)O)cc3cccc(N4C[C@@H](C)n5c(c(CCCOc6cc(C)c(Cl)c(C)c6)c6ccc(Cl)c(-c7c(C)nn(C)c7C)c65)C4=O)c32)nc1` [Example 363, (R)-7-(7-Chloro-10-(3-(4-chloro-3,5-dimethylphenoxy)propyl)-4-methyl-1-oxo-6-(1,3,5-trimethyl-1H-pyrazol-4-yl)-3,4-dihydropyrazino[1,2-a]indol-2(1H)-yl)-1-((5-methylpyridin-2-yl)methyl)-1H-indole-2-carboxylic acid], the GI50 in experiment [1] is 1400 nM. Moreover, at Mcl-1, the Ki stood at 1.6 nM.

Turning to `Cc1cc(OCCCc2c3n(c4c(-c5c(C)nn(C)c5C)c(Cl)ccc24)[C@H](C)CN(c2nn(CCN4CCOCC4)c4cc(C(=O)O)ccc24)C3=O)cc(C)c1Cl` [Example 50, (R)-3-(7-chloro-10-(3-(4-chloro-3,5-dimethylphenoxy)propyl)-4-methyl-1-oxo-6-(1,3,5-trimethyl-1H-pyrazol-4-yl)-3,4-dihydropyrazino[1,2-a]indol-2(1H)-yl)-1-(2-morpholinoethyl)-1H-indazole-6-carboxylic acid], in experiment [1], the GI50 was 710 nM. Besides, the Ki on Mcl-1 was < 1 nM.

For `Cc1cc(N2C[C@@H](C)n3c(c(CCCOc4cc(C)c(Cl)c(C)c4)c4ccc(Cl)c(-c5c(C)nn(C)c5C)c43)C2=O)c2c(c1)cc(C(N)=O)n2C` [Example 332, (R)-7-(7-Chloro-10-(3-(4-chloro-3,5-dimethylphenoxy)propyl)-4-methyl-1-oxo-6-(1,3,5-trimethyl-1H-pyrazol-4-yl)-3,4-dihydropyrazino[1,2-a]indol-2(1H)-yl)-1,5-dimethyl-1H-indole-2-carboxamide], the GI50 in experiment [1] turned out to be 670 nM. Moreover, at Mcl-1, the inhibition constant (Ki) was found to be 2.8 nM.

For `Cc1cc(OCCCc2c3n(c4c(-c5c(C)nn(C)c5C)c(Cl)ccc24)[C@H](C)CN(c2cccc4c(C(=O)O)cn(Cc5ccncc5)c24)C3=O)cc(C)c1Cl` [Example 472, (R)-7-(7-Chloro-10-(3-(4-chloro-3,5-dimethylphenoxy)propyl)-4-methyl-1-oxo-6-(1,3,5-trimethyl-1H-pyrazol-4-yl)-3,4-dihydropyrazino[1,2-a]indol-2(1H)-yl)-1-(pyridin-4-ylmethyl)-1H-indole-3-carboxylic acid], in experiment [1], the GI50 came out at 1700 nM. Further, the Ki on Mcl-1 was 1.2 nM.

On to `Cc1cc(OCCCc2c3n(c4c(-c5c(C)nn(C)c5C)c(Cl)ccc24)[C@H](C)CN(c2cc(C(C)C)cc4cc(C(=O)O)n(Cc5ccccn5)c24)C3=O)cc(C)c1Cl` [Example 359, (R)-7-(7-Chloro-10-(3-(4-chloro-3,5-dimethylphenoxy)propyl)-4-methyl-1-oxo-6-(1,3,5-trimethyl-1H-pyrazol-4-yl)-3,4-dihydropyrazino[1,2-a]indol-2(1H)-yl)-5-isopropyl-1-(pyridin-2-ylmethyl)-1H-indole-2-carboxylic acid], for which the GI50 in experiment [1] stood at 290 nM. At Mcl-1, the Ki was determined as 1.4 nM.

For `Cc1cc(OCCCc2c3n(c4c(-c5c(C)nn(C)c5C)c(Cl)ccc24)[C@H](C)CN(c2cc(C(=O)O)nc4c2ccn4C)C3=O)cc(C)c1Cl` [Example 167, (R)-4-(7-chloro-10-(3-(4-chloro-3,5-dimethylphenoxy)propyl)-4-methyl-1-oxo-6-(1,3,5-trimethyl-1H-pyrazol-4-yl)-3,4-dihydropyrazino[1,2-a]indol-2(1H)-yl)-1-methyl-1H-pyrrolo[2,3-b]pyridine-6-carboxylic acid], the GI50 in experiment [1] worked out at 4100 nM. Besides, the Ki at Mcl-1 was < 1 nM.

`Cc1cc(OCCCc2c3n(c4c(-c5c(C)nn(C)c5C)c(Cl)ccc24)[C@H](C)CN(c2ccc4cnoc4c2)C3=O)cc(C)c1Cl` [Example 115, (R)-2-(benzo[d]isoxazol-6-yl)-7-chloro-10-(3-(4-chloro-3,5-dimethylphenoxy)propyl)-4-methyl-6-(1,3,5-trimethyl-1H-pyrazol-4-yl)-3,4-dihydropyrazino[1,2-a]indol-1(2H)-one]: the GI50 in experiment [1] was determined as 5100 nM. Also, at Mcl-1, the Ki turned out to be 3.1 nM.

In the case of `COCCn1c(C(=O)O)cc2cccc(N3C[C@@H](C)n4c(c(CCCOc5cc(C)c(Cl)c(C)c5)c5ccc(Cl)c(-c6c(C)nn(C)c6C)c54)C3=O)c21` [Example 256, 7-[(4R)-7-chloro-10-[3-(4-chloro-3,5-dimethyl-phenoxy)propyl]-4-methyl-1-oxo-6-(1,3,5-trimethylpyrazol-4-yl)-3,4-dihydropyrazino[1,2-a]indol-2-yl]-1-(2-methoxyethyl)indole-2-carboxylic acid], the GI50 in experiment [1] was found to be 270 nM. Further, at Mcl-1, the Ki was < 1 nM.

Turning to `Cc1cc(OCCCc2c3n(c4c(-c5c(C)nn(C)c5C)c(Cl)ccc24)CCCN(c2cc(C(=O)O)cc4c2ccn4CCN(C)C)C3=O)cc(C)c1Cl` [Example 11, 4-(8-Chloro-11-(3-(4-chloro-3,5-dimethylphenoxy)propyl)-1-oxo-7-(1,3,5-trimethyl-1H-pyrazol-4-yl)-4,5-dihydro-1H-[1,4]diazepino[1,2-a]indol-2(3H)-yl)-1-(2-(dimethylamino)ethyl)-1H-indole-6-carboxylic acid], the GI50 in experiment [1] is 9900 nM. Besides, the Ki at Mcl-1 came out at 4 nM.

Regarding `COc1ccc(N2C[C@@H](C)n3c(c(CCCOc4cc(C)c(Cl)c(C)c4)c4ccc(Cl)c(-c5c(C)nn(C)c5C)c43)C2=O)c2c1cc(C(=O)O)n2Cc1ccccn1` [Example 313, 7-[(4R)-7-chloro-10-[3-(4-chloro-3,5-dimethyl-phenoxy)propyl]-4-methyl-1-oxo-6-(1,3,5-trimethylpyrazol-4-yl)-3,4-dihydropyrazino[1,2-a]indol-2-yl]-4-methoxy-1-(2-pyridylmethyl)indole-2-carboxylic acid], the GI50 in experiment [1] is < 200 nM. For the same molecule, the Ki at Mcl-1 is < 1 nM.
